Three compounds from ChEMBL document CHEMBL1124317, “Rationale for the synthesis and preliminary biological evaluation of highly active new antitumor nitrosoureido sugars” (J Med Chem, 1989) can be followed below.

Common to all, as to type: functional
Assay [1] can be described thus: Ratio of mice died to that of mice treated with 20 mg/kg of compound in olive oil intraperitoneally with Lewis lung; 0/20. To be noted: route intraperitoneal.
Assay [2] relates to Mus musculus. The experiment in a line: Median survival time of the non surviving mice; treated with 20 mg/kg of compound in olive oil to mice with Lewis lung; 21-41.
In assay [3] the test system is Mus musculus. The assay can be described thus: Anti tumor activity in olive oil when treated to mice with B16 melanocarcinoma with 20 mg/kg dose of compound intraperitoneally was expressed as percent of treated to control (T/C %). To be noted: route intraperitoneal.
Assay [4] has as its system Mus musculus. The experiment in a line: The number of L1210 Leukemia mice survived after 60 days with compound in olive oil injected by a dose of 20 mg/kg intraperitoneally; 3/15. To be noted: route intraperitoneal.
Assay [5] concerns Mus musculus. The assay can be described thus: The number of Lewis lung mice survived after 30 days with compound in olive oil injected by a dose of 20 mg/kg intraperitoneally; 13/20. To be noted: route intraperitoneal.
The test system of assay [6] is Mus musculus. The assay can be described thus: The number of Lewis lung mice survived after 60 days with compound in olive oil injected by a dose of 20 mg/kg intraperitoneally; 8/20. To be noted: route intraperitoneal.
Assay [7] can be described thus: Ratio of mice died to that of mice treated with 20 mg/kg of compound in olive oil intraperitoneally with B16 Melanocarcinoma; 0/20. To be noted: route intraperitoneal.
In assay [8] the test system is Mus musculus. The experiment in a line: The number of B16 melanocarcinoma mice survived after 30 days with compound in olive oil injected by a dose of 20 mg/kg intraperitoneally; 9/20. To be noted: route intraperitoneal.
Assay [9] has as its system Mus musculus. The assay can be described thus: Anti tumor activity in olive oil when treated to mice with L1210 leukemia with 20 mg/kg dose of compound intraperitoneally was expressed as percent of treated to control (T/C %). To be noted: route intraperitoneal.
Assay [10] in a line: Ratio of mice died to that of mice treated with 20 mg/kg of compound in olive oil intraperitoneally with L1210 leukemia tumor; 0/15. To be noted: route intraperitoneal.
For assay [11], the system named is Mus musculus. The experiment in a line: Median survival time of the non surviving mice; treated with 20 mg/kg of compound in olive oil to mice with L1210 leukemia tumor; 21-42.
Assay [12] concerns Mus musculus. The experiment in a line: The number of B16 melanocarcinoma mice survived after 60 days with compound in olive oil injected by a dose of 20 mg/kg intraperitoneally; 1/20. To be noted: route intraperitoneal.
The test system of assay [13] is Mus musculus. The assay can be described thus: The number of L1210 Leukemia mice survived after 30 days with compound in olive oil injected by a dose of 20 mg/kg intraperitoneally; 4/15. To be noted: route intraperitoneal.
The test system of assay [14] is Mus musculus. The experiment in a line: Anti tumor activity in olive oil when treated to mice with Lewis lung with 20 mg/kg dose of compound intraperitoneally was expressed as percent of treated to control (T/C %). To be noted: route intraperitoneal.
The test system of assay [15] is Mus musculus. The experiment in a line: Median survival time of the non surviving mice; treated with 20 mg/kg of compound in olive oil to mice with B16 Melanocarcinoma; 23-45.
Assay [16] deals with Mus musculus. The experiment in a line: The number of Lewis lung mice survived after 60 days with compound in olive oil injected by a dose of 20 mg/kg intraperitoneally; 6/20. To be noted: route intraperitoneal.
For assay [17], the system named is Mus musculus. The assay can be described thus: Median survival time of the non surviving mice; treated with 20 mg/kg of compound in olive oil to mice with Lewis lung; 19-46.
Assay [18] deals with Mus musculus. The experiment in a line: The number of L1210 Leukemia mice survived after 60 days with compound in olive oil injected by a dose of 20 mg/kg intraperitoneally; 15/15. To be noted: route intraperitoneal.
Assay [19] relates to Mus musculus. The experiment in a line: Median survival time of the non surviving mice; treated with 20 mg/kg of compound in olive oil to mice with B16 Melanocarcinoma; 20-32.
For assay [20], the system named is Mus musculus. The assay can be described thus: The number of L1210 Leukemia mice survived after 30 days with compound in olive oil injected by a dose of 20 mg/kg intraperitoneally; 15/15. To be noted: route intraperitoneal.
The test system of assay [21] is Mus musculus. The experiment in a line: The number of Lewis lung mice survived after 30 days with compound in olive oil injected by a dose of 20 mg/kg intraperitoneally; 14/20. To be noted: route intraperitoneal.
Assay [22] deals with Mus musculus. The assay can be described thus: The number of B16 melanocarcinoma mice survived after 60 days with compound in olive oil injected by a dose of 20 mg/kg intraperitoneally; 0/20. To be noted: route intraperitoneal.
In assay [23] the test system is Mus musculus. The experiment in a line: The number of B16 melanocarcinoma mice survived after 30 days with compound in olive oil injected by a dose of 20 mg/kg intraperitoneally; 1/20. To be noted: route intraperitoneal.
Assay [24] can be described thus: Number of mice died/no of mice treated with 5 mg/kg of compound in aqueous solution intraperitoneally with L1210 leukemia; 0/10. To be noted: route intraperitoneal.
For assay [25], the system named is Mus musculus. The assay can be described thus: The number of L1210 leukemia mice survived after 30 days with compound injected by a dose of 2.5 mg/kg intraperitoneally; 0/8. To be noted: route intraperitoneal.
For assay [26], the system named is Mus musculus. The experiment in a line: Median survival time of the non surviving mice; treated with 1.25 mg/kg of compound to mice with L1210 leukemia; 9-11.
Assay [27] concerns Mus musculus. The experiment in a line: The number of L1210 leukemia mice survived after 30 days with compound injected by a dose of 10 mg/kg intraperitoneally; 8/8. To be noted: route intraperitoneal.
Assay [28] concerns Mus musculus. The experiment in a line: The number of L1210 leukemia mice survived after 60 days with compound in aqueous solution injected by a dose of 5 mg/kg intraperitoneally; 0/10. To be noted: route intraperitoneal.
The subject of assay [29] is Mus musculus. The assay can be described thus: The number of L1210 leukemia mice survived after 30 days with compound injected by a dose of 0.625 mg/kg intraperitoneally; 0/8. To be noted: route intraperitoneal.
Assay [30] relates to Mus musculus. The assay can be described thus: Anti tumor activity l when treated to mice with L1210 leukemia with 0.625 mg/kg dose of compound intraperitoneally was expressed as percent of treated to control (T/C %). To be noted: route intraperitoneal.
Assay [31] relates to Mus musculus. The experiment in a line: Anti tumor activity l when treated to mice with L1210 leukemia with 1.25 mg/kg dose of compound intraperitoneally was expressed as percent of treated to control (T/C %). To be noted: route intraperitoneal.
Assay [32] has as its system Mus musculus. The experiment in a line: The number of L1210 leukemia mice survived after 30 days with compound in aqueous solution injected by a dose of 5 mg/kg intraperitoneally; 0/10. To be noted: route intraperitoneal.
Assay [33] deals with Mus musculus. The assay can be described thus: The number of L1210 leukemia mice survived after 30 days with compound injected by a dose of 1.25 mg/kg intraperitoneally; 0/8. To be noted: route intraperitoneal.
Assay [34] deals with Mus musculus. The experiment in a line: Anti tumor activity l when treated to mice with L1210 leukemia with 5 mg/kg dose of compound intraperitoneally was expressed as percent of treated to control (T/C %). To be noted: route intraperitoneal.
The nature of assay [35]: Mortality range of the mice with L1210 leukemia treated with 1.25 mg/kg of dose intraperitoneally with no of mice survived/no of mice treated; 0/8. To be noted: route intraperitoneal.
The subject of assay [36] is Mus musculus. The assay can be described thus: Median survival time of the non surviving mice; treated with 5 mg/kg of compound to mice with L1210 leukemia; 18-24.
The nature of assay [37]: Mortality range of the mice with L1210 leukemia treated with 10 mg/kg of dose intra peritoneally with no of mice survived/no of mice treated; 0/8.
Assay [38] in a line: Mortality range of the mice with L1210 leukemia treated with 5 mg/kg of dose intraperitoneally with no of mice survived/no of mice treated; 0/8. To be noted: route intraperitoneal.
In assay [39] the test system is Mus musculus. The assay can be described thus: The number of L1210 leukemia mice survived after 30 days with compound injected by a dose of 5 mg/kg intraperitoneally; 0/8. To be noted: route intraperitoneal.
Assay [40] relates to Mus musculus. The experiment in a line: Median survival time of the non surviving mice; treated with 0.625 mg/kg of compound to mice with L1210 leukemia; 9-10.
Assay [41] relates to Mus musculus. The assay can be described thus: Median survival time of the non surviving mice; treated with 2.5 mg/kg of compound to mice with L1210 leukemia; 11-12.
Assay [42] in a line: Mortality range of the mice with L1210 leukemia treated with 0.625 mg/kg of dose intraperitoneally with no of mice survived/no of mice treated; 0/8. To be noted: route intraperitoneal.
The subject of assay [43] is Mus musculus. The experiment in a line: Anti tumor activity in olive oil when treated to mice with L1210 leukemia with 5 mg/kg dose of compound intraperitoneally was expressed as percent of treated to control (T/C %). To be noted: route intraperitoneal.
For assay [44], the system named is Mus musculus. The assay can be described thus: Anti tumor activity l when treated to mice with L1210 leukemia with 2.5 mg/kg dose of compound intraperitoneally was expressed as percent of treated to control (T/C %). To be noted: route intraperitoneal.
Assay [45] concerns Mus musculus. The assay can be described thus: Median survival time of the non surviving mice; treated with 5 mg/kg of compound in olive oil to mice with L1210 leukemia; 16-19.
Assay [46] can be described thus: Mortality range of the mice with L1210 leukemia treated with 2.5 mg/kg of dose intraperitoneally with no of mice survived/no of mice treated; 0/8. To be noted: route intraperitoneal.

With `COC1CC(O)C(O)C(CNC(=O)N(CCCl)N=O)O1` (stereo unspecified), the Ratio in assay [1], in assay [7] and in assay [10] was 0 in each case. Besides, the values for the Median survival time in the assay on Mus musculus [2], with Mus musculus [11] and in the assay on Mus musculus [15] were 39, 23.5 and 30, respectively. The T/C – broadly, the result in the treated group divided by that in the control group, in per cent – with Mus musculus [3] is listed as 215%; in the assay with Mus musculus [9], 263%; in the assay with Mus musculus [14], 313%. The Survivals is listed as 3 with Mus musculus [4]; 13 in the assay with Mus musculus [5]; 8 with Mus musculus [6]; 9 in the assay with Mus musculus [8]; 1 in the assay on Mus musculus [12]; 4 with Mus musculus [13].
For the compound `COC1CC(NC(=O)N(CCCl)N=O)C(OC)C(C)O1` (stereo unspecified), the Ratio in assay [1], in assay [7] and in assay [10] was 0 throughout. The Survivals in the assay on Mus musculus [16] is listed as 6; in the assay with Mus musculus [18], 15; in the assay on Mus musculus [20], 15; in the assay with Mus musculus [21] it was 14; in the assay with Mus musculus [22], 0; with Mus musculus [23], 1. In addition, the T/C amounted to 170% with Mus musculus [3] and 281% in the assay on Mus musculus [14]. Moreover, the Median survival time with Mus musculus [17] was found to be 35; in the assay on Mus musculus [19] it was 23.62.
For `O=NN(CCCl)C(=O)NCCCl` [CARMUSTINE], the Ratio in assay [24], in assay [35], in [37], in [38], in assay [42] and in [46] was 0 each time. For the same compound, the Survivals with Mus musculus [25] was 0; in the assay on Mus musculus [27], 8; in the assay on Mus musculus [28] it was 0; in the assay on Mus musculus [29], 0; in the assay on Mus musculus [32], 0; with Mus musculus [33], 0. Besides, in the assay with Mus musculus [39], the Survivals worked out at 0. The Median survival time is on record as 9.9 in the assay on Mus musculus [26]; 19.8 in the assay on Mus musculus [36]; 9.4 with Mus musculus [40]; 11.5 in the assay with Mus musculus [41]; 16.75 with Mus musculus [45]. The T/C with Mus musculus [30] was 104%; in the assay with Mus musculus [31] it was 110%; in the assay with Mus musculus [34] it was 220%; with Mus musculus [43] it was 177%; in the assay on Mus musculus [44], 128%.
